Experimental data reported in patent US20260199323A1, “LIGAND COMPOUNDS FOR E3 UBIQUITIN LIGASE, PROTEIN DEGRADERS DEVELOPED ON BASIS OF LIGAND COMPOUNDS, AND USES THEREOF” (GLUETACS THERAPEUTICS (SHANGHAI) CO., LTD., priority 2021, published 2026).
Where two headings read alike, the source gives them in different places. Values belong to the compound of their own block, whether it stands above or below them.

How the values were obtained:
[1] = system: SR; test: CCK-8 tumor cell proliferation, SR; format: cell-based, Human; conditions: Homo sapiens, SR, read-out: IC50 inhibiting proliferation of tumor cells, SR
Outline: (§1)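 IC50 derived from CCK-8 cell viability after compound treatment. Dilution series: 10 concentrations, 5-fold apart, from 10 μM. Compound added 24 h post-seeding; culture at 37 °C in 5% CO2.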

[2] = system: LNcap; test: CCK-8 tumor cell proliferation, LNcap; format: cell-based, Human; conditions: Homo sapiens
Method: (§2) The tumor cells used herein were cultured in a cell culture medium listed in table 4 at 37° C. in an incubator with 5% CO2. Prior to experimentation, all cells used were correctly identified by STR profiling, and tested negative for mycoplasma through routine screenings.
(§3) IC50 values of the compounds of the present disclosure (including the compounds in Tables 1 and 3, and compounds of examples) were measured using the Meilun Cell Counting Kit-8 kit from Dalian Meilun Biotech Co., Ltd. Assay details are as follows: tumor cells were seeded in a 96-well plate at a density listed in Table 5. After 24 h, 100 μL of the inoculated cells were treated with 0.5 μL of the compounds of the present disclosure (including the compounds in Tables 1 and 3, and compounds of examples) at 10 different successively decreasing concentrations (starting at the highest concentration of 10 μM; 5-fold serial dilutions). After the cells were treated with the compounds of the present disclosure for a period of time, the cell viability detection reagent was added to the culture medium for cell viability assessment according to the instructions provided with the CCK-8 kit. […] The growth inhibition of the compounds of the present disclosure on cells was plotted by Prism Graphpad software, and the IC50 values of the compounds of the present disclosure were calculated therefrom.

[3] = system: HCC827; test: CCK-8 tumor cell proliferation, HCC827; format: cell-based, Human; conditions: for IC50: Homo sapiens, HCC827, read-out: IC50 inhibiting proliferation of tumor cells, HCC827; for IC50 for inhibiting the proliferation of tumor cells, HCC827: Table 11, designed based on EGFR inhibitors, 96 h
Method: The tumor cells used herein were cultured in a cell culture medium listed in table 4 at 37° C. in an incubator with 5% CO2.
as §3, with “After” for “IC50 values of the compounds of the present disclosure (including the compounds in Tables 1 and 3, and compounds of examples) were measured using the Meilun Cell Counting Kit-8 kit from Dalian Meilun Biotech Co., Ltd. Assay details are as follows: tumor cells were seeded in a 96-well plate at a density listed in Table 5. After”

[4] = system: CCRF-CEM; test: CCK-8 tumor cell proliferation, CCRF-CEM; format: cell-based, Human; conditions: Homo sapiens, CCRF-CEM, read-out: IC50 inhibiting proliferation of tumor cells, CCRF-CEM
Outline: as §1

[5] = system: MDA-MB-231; test: CCK-8 tumor cell proliferation, MDA-MB-231; format: cell-based, Human; conditions: Homo sapiens, MDA-MB-231, read-out: IC50 inhibiting proliferation of tumor cells, MDA-MB-231
Outline: as §1

[6] = system: MM.1S; test: CCK-8 tumor cell proliferation, MM.1S; format: cell-based; conditions: Homo sapiens, MM1.S; Table 20; MM.1S; given as number; read-out: IC50 inhibiting proliferation of tumor cells, MM.1S
Outline: as §1

[7] = system: PC-9; test: CCK-8 tumor cell proliferation, PC-9; format: cell-based, Human; conditions: Homo sapiens; Table 15, ALK inhibitor based; PC-9; read-out: IC50 inhibiting proliferation of tumor cells, PC-9
[8] = system: Mino; test: CCK-8 tumor cell proliferation, Mino; format: cell-based, Human; conditions: Homo sapiens; Table 15, ALK inhibitor based; Mino; read-out: IC50 inhibiting proliferation of tumor cells, Mino
Outline: as §1

[9] = system: Kasumi-1; test: CCK-8 tumor cell proliferation, Kasumi-1; format: cell-based, Human; conditions: Homo sapiens, Kasumi-1, read-out: IC50 inhibiting proliferation of tumor cells, Kasumi-1
Method: as §2, §3

[10] = system: Hep3B2.7-1; test: CCK-8 tumor cell proliferation, Hep3B2.7-1; format: cell-based, Human; conditions: Homo sapiens
Method: as §2, §3

[11] = system: Jurkat; test: CCK-8 tumor cell proliferation, Jurkat; format: cell-based, Human; conditions: Homo sapiens, read-out: IC50 inhibiting proliferation of tumor cells, Jurkat
Outline: as §1

[12] = system: MM.1R; test: CCK-8 tumor cell proliferation, MM.1R; format: cell-based; conditions: read-out: IC50 inhibiting proliferation of tumor cells, MM.1R
Method: as §2, §3

[13] = Table 20, BCL-2 inhibitor based
[14] = Table 22, NTRK inhibitor based, HEP3B2.7-1, read-out: IC50 inhibiting proliferation of tumor cells, HEP3B2.7-1
[15] = Table 19, IRAK4 inhibitor based, Lncap, read-out: IC50 inhibiting proliferation of tumor cells, Lncap
[16] = Table 19, IRAK4 inhibitor based
[17] = Table 19, IRAK4 inhibitor based, Hep3B2.7-1, read-out: IC50 inhibiting proliferation of tumor cells, Hep3B2.7-1

IC50 [1, 13]: 500 to 1000 nM
IC50 ([2]; Table 20, BCL-2 inhibitor based, LNcap, read-out: IC50 inhibiting proliferation of tumor cells, LNcap): 1000 to 5000 nM
IC50 [3, 13]: 5000 to 10000 nM
IC50 ([4]; Table 20, given as number): > 10000 nM
IC50 [5, 13]: 1000 to 5000 nM
IC50 [6]: > 10000 nM
Structure (SMILES): CC1(C)CCC(CN2CCN(c3ccc(C(=O)NS(=O)(=O)c4ccc(NCC5CCOCC5)c([N+](=O)[O-])c4)c(Oc4cnc5[nH]ccc5c4)c3)CC2)=C(c2ccc(Cl)cc2)C1 [ABT-199, Venetoclax, reference compound]

IC50 for inhibiting the proliferation of tumor cells, HCC827 [3]: A+
Structure (SMILES): COc1cc2ncnc(Nc3cccc(Cl)c3F)c2cc1OCc1ccc2c(c1)CN(C1CCC(=O)NC1=O)C2=O (centres unmarked) [GT-03325, 3-(5-(((4-((3-chloro-2-fluorophenyl)amino)-7-methoxyquinazolin-6-yl)oxy)methyl)-1-oxoisoindolin-2-yl)piperidine-2,6-dione]

IC50 ([1]; Table 15, ALK inhibitor based): < 50 nM
IC50 [7]: 500 to 1000 nM
IC50 ([3]; Table 15, ALK inhibitor based): 1000 to 5000 nM
IC50 ([5]; Table 15, ALK inhibitor based): 1000 to 5000 nM
Structure (SMILES): CCc1cc2c(cc1N1CCC(N(C)Cc3ccc4c(c3)CN(C3CCC(=O)NC3=O)C4=O)CC1)C(C)(C)c1[nH]c3cc(C#N)ccc3c1C2=O (centres unmarked) [GT-03474, 8-(4-(((2-(2,6-dioxopiperidin-3-yl)-1-oxoisoindolin-5-yl)methyl)(methyl)amino)piperidin-1-yl)-9-ethyl-6,6-dimethyl-11-oxo-6,11-dihydro-5H-benzo[b]carbazole-3-carbonitrile]

IC50 ([1]; Table 15, ALK inhibitor based): < 50 nM
IC50 [7]: 100 to 500 nM
IC50 ([3]; Table 15, ALK inhibitor based): 100 to 500 nM
IC50 ([5]; Table 15, ALK inhibitor based): 100 to 500 nM
IC50 [8]: 5000 to 10000 nM
Structure (SMILES): COc1cc(N2CCC(N(C)Cc3cc4c(cc3F)C(=O)N(C3CCC(=O)NC3=O)C4)CC2)ccc1Nc1ncc(Cl)c(Nc2ccccc2P(C)(C)=O)n1 (centres unmarked) [GT-03601, 3-(5-(((1-(4-((5-chloro-4-((2-(dimethylphosphoryl)phenyl)amino)pyrimidin-2-yl)amino)-3-methoxyphenyl)piperidin-4-yl)(methyl)amino)methyl)-6-fluoro-1-oxoisoindolin-2-yl)piperidine-2,6-dione]

IC50 ([9]; Table 22, NTRK inhibitor based): 100 to 500 nM
IC50 [10, 14]: < 50 nM
IC50 ([4]; Table 22, NTRK inhibitor based): < 50 nM
IC50 ([11]; Table 22, NTRK inhibitor based): 100 to 500 nM
IC50 ([12]; Table 22, NTRK inhibitor based): < 50 nM
Structure (SMILES): O=C1CCC(N2Cc3cc(CN4CCN(c5cccc(-c6cnn7ccc(N8CCC[C@@H]8c8cc(F)ccc8F)nc67)n5)CC4)ccc3C2=O)C(=O)N1 (stereo partly drawn) [GT-04262, 3-(5-((4-(6-(5-((R)-2-(2,5-difluorophenyl)pyrrolidin-1-yl)pyrazolo[1,5-a]pyrimidin-3-yl)pyridin-2-yl)piperazin-1-yl)methyl)-1-oxoisoindolin-2-yl)piperidine-2,6-dione]

IC50 ([9]; Table 22, NTRK inhibitor based): 500 to 1000 nM
IC50 [10, 14]: < 50 nM
IC50 ([4]; Table 22, NTRK inhibitor based): 50 to 100 nM
IC50 ([11]; Table 22, NTRK inhibitor based): 100 to 500 nM
IC50 ([12]; Table 22, NTRK inhibitor based): < 50 nM
Structure (SMILES): O=C1CCC(N2Cc3c(ccc(CN4CCN(c5cccc(-c6cnn7ccc(N8CCC[C@@H]8c8cc(F)ccc8F)nc67)n5)CC4)c3F)C2=O)C(=O)N1 (stereo partly drawn) [GT-04263, 3-(5-((4-(6-(5-((R)-2-(2,5-difluorophenyl)pyrrolidin-1-yl)pyrazolo[1,5-a]pyrimidin-3-yl)pyridin-2-yl)piperazin-1-yl)methyl)-4-fluoro-1-oxoisoindolin-2-yl)piperidine-2,6-dione]

IC50 [2, 15]: 100 to 500 nM
IC50 [9, 16]: 50 to 100 nM
IC50 [10, 17]: < 50 nM
IC50 [4, 16]: 100 to 500 nM
IC50 [11, 16]: 50 to 100 nM
IC50 [12, 16]: 100 to 500 nM
Structure (SMILES): O=C1CCC(N2Cc3cc(CN4CCN(c5ccc(-n6cc(NC(=O)c7coc(-c8ccnc(NCC(F)(F)F)c8)n7)c(C(F)F)n6)cc5)CC4)c(F)cc3C2=O)C(=O)N1 (centres unmarked) [GT-04269, N-(3-(difluoromethyl)-1-(4-(4-((2-(2,6-dioxopiperidin-3-yl)-6-fluoro-1-oxoisoindolin-5-yl)methyl)piperazin-1-yl)phenyl)-1H-pyrazol-4-yl)-2-(2-((2,2,2-trifluoroethyl)amino)pyridin-4-yl)oxazole-4-carboxamide]

IC50 [2, 15]: 50 to 100 nM
IC50 [9, 16]: < 50 nM
IC50 [10, 17]: < 50 nM
IC50 [4, 16]: < 50 nM
IC50 [11, 16]: < 50 nM
IC50 [12, 16]: < 50 nM
Structure (SMILES): O=C1CCC(N2Cc3c(CN4CCN(c5ccc(-n6cc(NC(=O)c7coc(-c8ccnc(NCC(F)(F)F)c8)n7)c(C(F)F)n6)cc5)CC4)cccc3C2=O)C(=O)N1 (centres unmarked) [GT-04271, N-(3-(difluoromethyl)-1-(4-(4-((2-(2,6-dioxopiperidin-3-yl)-1-oxoisoindolin-4-yl)methyl)piperazin-1-yl)phenyl)-1H-pyrazol-4-yl)-2-(2-((2,2,2-trifluoroethyl)amino)pyridin-4-yl)oxazole-4-carboxamide]

IC50 [2, 15]: 100 to 500 nM
IC50 [9, 16]: 50 to 100 nM
IC50 [10, 17]: 500 to 1000 nM
IC50 [11, 16]: 1000 to 5000 nM
IC50 [12, 16]: 500 to 1000 nM
Structure (SMILES): O=C1CCC(N2C(=O)c3ccc(CN4CCN(c5ccc(-n6cc(NC(=O)c7coc(-c8ccnc(NCC(F)(F)F)c8)n7)c(C(F)F)n6)cc5)CC4)cc3C2=O)C(=O)N1 (centres unmarked) [GT-04272, N-(3-(difluoromethyl)-1-(4-(4-((2-(2,6-dioxopiperidin-3-yl)-1,3-dioxoisoindolin-5-yl)methyl)piperazin-1-yl)phenyl)-1H-pyrazol-4-yl)-2-(2-((2,2,2-trifluoroethyl)amino)pyridin-4-yl)oxazole-4-carboxamide]

Structure (SMILES): C=CC(=O)Nc1cc(Nc2nccc(-c3cn(C)c4ccccc34)n2)c(OC)cc1N(C)CCN(C)C [osimertinib, Osimertinib, reference compound]
IC50 for inhibiting the proliferation of tumor cells, HCC827 [3]: A+
